Assay results: patent publication US7181271B2, “Synergism of photodynamic and electropermeation effect on cell vitality as a novel cytotoxic agent” (Genetronics, Inc., priority 2003, dated 2007)

Legend:
[1] = system: U937 cells; assay: Cell viability by trypan blue exclusion after electroporation (250 V, 400 F) and 14 min irradiation; type: cell-based; settings: for Total dead cells for exp. / Dead cells by pulse / Dead cells by light for control: 1 × 10^−5 M agent, 18–22 C; for Total dead cells for exp. / Dead cells by pulse / Dead cells by light for control / Final dead cells: exp/control: U937 cells; for Total dead cells for exp.: pulse 250 V plus 14 min irradiation; for Dead cells by pulse: single pulse 250 V (1.2 kV/cm), 400 F, 11–12 ms, 14 min irradiation; for Dead cells by light for control: unpulsed control, irradiated 14 min; for Final dead cells: exp/control: ratio of total dead cells (pulse + light) to dead cells by light only, 1 × 10^−5 M
[2] = type 1 photoreaction; cited from earlier work

| SMILES | Total dead cells for exp. [1] [%] | Dead cells by pulse [1] [%] | Dead cells by light for control [1] [%] | Final dead cells: exp/control [1] | penetration and dark effect (without irradiation) ([1]; unpulsed U937 cells, without irradiation) | rate constant of oxidizing guanosine [2] [M⁻¹ s⁻¹] |
| --- | --- | --- | --- | --- | --- | --- |
| COc1cccc2c1C(=O)c1c(O)c3c(c(O)c1C2=O)C[C@@](O)(C(C)=O)C[C@@H]3O[C@H]1C[C@H](N)[C@H](O)[C@H](C)O1 [DAM, daunomycin] | 87.5 | 63.4 | 17.6 | 4.9 | increases with time |  |
| C=CC1=C(C)c2cc3[nH]c(cc4nc(cc5[nH]c(cc1n2)c(C)c5CCC(=O)O)C(CCC(=O)O)=C4C)c(C)c3C=C [PP, protoporphyrin] | 91.6 | 65.8 | 18.8 | 4.9 |  |  |
| CN(C)c1ccc2cc3ccc(=[N+](C)C)cc-3sc2c1.[Cl-] [TP, thiopyronin] | 98.6 | 80.3 | 20.1 | 4.9 |  | 3.8e+06 |
